According to patent US9914730B2, “Azaquinazoline inhibitors of Atypical protein Kinase C” (Ignyta, Inc., priority 2012, dated 2018):

Biological target: T1, full-length human PKCι (Homo sapiens, UniProt P41743)
T1 construct: Recombinant, full-length human PKCι expressed in Sf21 insect cells is also commercially available; purchased; host or cells: Sf21 insect cells
T1 sequence (P41743 1-596): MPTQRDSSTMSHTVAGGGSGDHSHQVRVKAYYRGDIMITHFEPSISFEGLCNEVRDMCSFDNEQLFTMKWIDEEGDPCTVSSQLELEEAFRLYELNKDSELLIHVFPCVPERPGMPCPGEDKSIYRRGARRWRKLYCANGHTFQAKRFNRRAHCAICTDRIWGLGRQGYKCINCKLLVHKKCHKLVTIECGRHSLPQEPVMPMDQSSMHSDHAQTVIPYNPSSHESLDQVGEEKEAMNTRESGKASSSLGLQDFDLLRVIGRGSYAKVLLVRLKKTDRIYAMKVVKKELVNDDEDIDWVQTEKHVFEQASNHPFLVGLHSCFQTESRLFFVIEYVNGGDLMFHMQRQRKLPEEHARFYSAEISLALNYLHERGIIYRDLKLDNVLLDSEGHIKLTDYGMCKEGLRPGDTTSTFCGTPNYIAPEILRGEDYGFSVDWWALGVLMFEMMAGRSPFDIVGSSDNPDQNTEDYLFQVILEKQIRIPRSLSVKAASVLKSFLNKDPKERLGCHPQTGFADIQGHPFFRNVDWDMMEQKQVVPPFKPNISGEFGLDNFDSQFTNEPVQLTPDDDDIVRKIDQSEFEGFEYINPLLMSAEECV
Test: PKCι IC50 IMAP assay, full-length PKCι at 150 μM ATP
Assay type: biochemical
Conditions: read-out: IC50 in IMAP assay against full length PKCi at 150 μM ATP
Procedure, shortened: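 IMAP fluorescence polarisation (ex 485/em 530 nm) read-out; % inhibition set from no-compound (0%) and no-enzyme (100%) controls, IC50 from dose-response curve fit. Sf21-expressed full-length enzyme ~15 pM, 100 nM FAM peptide, ATP 150 μM (5× KM^APP), 60 min at RT.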

Compound	IC50 [µM]
CN1CCN(c2cccc(Nc3cc(-c4nc(N5CC(O)C5)c5c(C6CC6)cncc5n4)ccn3)c2)CC1 [Example 777, 1-(5-Cyclopropyl-2-{2-[3-(4-methyl-piperazin-1-yl)-phenylamino]-pyridin-4-yl}-pyrido[3,4-d]pyrimidin-4-yl)-azetidin-3-ol]	0.1 to 1
Fc1cnc(Nc2cc(-c3nc(N4CCC(C5CCOCC5)C4)c4c(C5CC5)cncc4n3)ccn2)c(F)c1 (centres unmarked) [Example 2173, (4-{5-Cyclopropyl-4-[3-(tetrahydro-pyran-4-yl)-pyrrolidin-1-yl]-pyrido[3,4-d]pyrimidin-2-yl}-pyridin-2-yl)-(3,5-difluoro-pyridin-2-yl)-amine]	1 to 10
c1cc2c(N3CCNCC3)nc(-c3ccnc4[nH]ccc34)nc2cn1 [Example 1207, 4-Piperazin-1-yl-2-(1H-pyrrolo[2,3-b]pyridin-4-yl)-pyrido[3,4-d]pyrimidine]	0.1 to 1
COCCN1CCN(c2nc(-c3ccnc(NC(=O)C4CC4)c3)nc3cncc(C4CC4)c23)CC1 [Example 666, Cyclopropane-carboxylic acid (4-{5-cyclopropyl-4-[4-(2-methoxy-ethyl)-piperazin-1-yl]-pyrido[3,4-d]pyrimidin-2-yl}-pyridin-2-yl)-amide]	1 to 10
c1ccc(-c2ccc(Nc3cc(-c4nc(N5CCNCC5)c5c(C6CC6)cncc5n4)ccn3)cc2)cc1 [Example 683, Biphenyl-4-yl-[4-(5-cyclopropyl-4-piperazin-1-yl-pyrido[3,4-d]pyrimidin-2-yl)-pyridin-2-yl]-amine]	1 to 10
Fc1cnc(Nc2cc(-c3nc(NC4CCOCC4)c4c(C5CC5)cncc4n3)ccn2)c(F)c1 [Example 2168, {5-Cyclopropyl-2-[2-(3,5-difluoro-pyridin-2-ylamino)-pyridin-4-yl]-pyrido[3,4-d]pyrimidin-4-yl}-(tetrahydro-pyran-4-yl)-amine]	10 to 40
N[C@H](CNc1nc(-c2ccncc2)nc2c(-c3ccc(O)cc3)nccc12)Cc1ccccc1 [Example 91, 4-(4-{[(2S)-2-amino-3-phenylpropyl]-amino}-2-(pyridin-4-yl)pyrido[3,4-d]-pyrimidin-8-yl)phenol]	0.1 to 1
N[C@@H](CNc1nc(-c2ccncc2)nc2c(Sc3ccccc3)nccc12)Cc1ccccc1 [Example 128, (R)-3-Phenyl-N^1-(8-phenylsulfanyl-2-pyridin-4-yl-pyrido[3,4-d]pyrimidin-4-yl)-propane-1,2-diamine]	1 to 10
Cc1noc(C)c1-c1nccc2c(NC[C@@H](N)Cc3ccccc3)nc(-c3ccncc3)nc12 [Example 112, N-[(2S)-2-amino-3-phenylpropyl]-8-(dimethyl-1,2-oxazol-4-yl)-2-(pyridin-4-yl)-pyrido[3,4-d]-pyrimidin-4-amine]	10 to 40
COc1cncc2nc(-c3ccncc3)nc(NC[C@H](Cc3ccccc3)N(C)C)c12 [Example 49, [(2S)-1-{[5-methoxy-2-(pyridin-4-yl)-pyrido[3,4-d]-pyrimidin-4-yl]-amino}-3-phenylpropan-2-yl]dimethylamine]	1 to 10
O=C(C1CCN(c2nc(-c3ccnc(Nc4c(F)cccc4F)c3)nc3cncc(C4CC4)c23)CC1)N1CCNCC1 [Example 741, (1-{5-Cyclopropyl-2-[2-(2,6-difluoro-phenylamino)-pyridin-4-yl]-pyrido[3,4-d]pyrimidin-4-yl}-piperidin-4-yl)-piperazin-1-yl-methanone]	0.1 to 1
FC(F)(F)c1cc2c(-c3nc(N4CCSCC4)c4c(C5CC5)cncc4n3)ccnc2[nH]1 [Example 1246, 5-Cyclopropyl-4-thiomorpholin-4-yl-2-(2-trifluoromethyl-1H-pyrrolo[2,3-b]pyridin-4-yl)-pyrido[3,4-d]pyrimidine]	10 to 40
COc1cncc2nc(-c3ccnc(Nc4ccc(-c5ccccc5)cn4)c3)nc(N[C@@H]3CCNC3)c12 [Example 329, {5-Methoxy-2-[2-(5-phenyl-pyridin-2-ylamino)-pyridin-4-yl]-pyrido[3,4-d]pyrimidin-4-yl}-(R)-pyrrolidin-3-yl-amine]	< 0.1
c1cc(-c2nc(N3CCNCC3)c3c(C4CC4)cncc3n2)cc(Nc2cnn(C3CCCC3)c2)n1 [Example 796, (1-Cyclopentyl-1H-pyrazol-4-yl)-[4-(5-cyclopropyl-4-piperazin-1-yl-pyrido[3,4-d]pyrimidin-2-yl)-pyridin-2-yl]-amine]	< 0.1
COc1cncc2nc(-c3ccnc(Nc4ccc5c(C)n(C)nc5c4)c3)nc(N3CCNCC3)c12 [Example 490, (2,3-Dimethyl-2H-indazol-6-yl)-[4-(5-methoxy-4-piperazin-1-yl-pyrido[3,4-d]pyrimidin-2-yl)-pyridin-2-yl]-amine]	< 0.1

Further lines, results first:

IC50 [µM]	Compound
< 0.1	c1cc(C2CC2)n2nc(Nc3cc(-c4nc(N5CCNCC5)c5c(C6CC6)cncc5n4)ccn3)nc2c1 [Example 825, [4-(5-Cyclopropyl-4-piperazin-1-yl-pyrido[3,4-d]pyrimidin-2-yl)-pyridin-2-yl]-(5-cyclopropyl-[1,2,4]triazolo[1,5-a]pyridin-2-yl)-amine]
< 0.1	c1cc(-c2nc(N3CCNCC3)c3c(C4CC4)cncc3n2)cc(NC23CC4CC(CC(C4)C2)C3)n1 [Example 285, Adamantan-1-yl-[4-(5-cyclopropyl-4-piperazin-1-yl-pyrido[3,4-d]pyrimidin-2-yl)-pyridin-2-yl]-amine]
< 0.1	N#CC[C@H]1CN(c2nc(-c3ccnc4[nH]ccc34)nc3cncc(C4CC4)c23)CCN1 [Example 1221, {(S)-4-[5-Cyclopropyl-2-(1H-pyrrolo[2,3-b]pyridin-4-yl)-pyrido[3,4-d]pyrimidin-4-yl]-piperazin-2-yl}-acetonitrile]
< 0.1	FC(F)(F)COc1ccc(Nc2cc(-c3nc(N4CCNCC4)c4c(C5CC5)cncc4n3)ccn2)cc1 [Example 2150, [4-(5-Cyclopropyl-4-piperazin-1-yl-pyrido[3,4-d]pyrimidin-2-yl)-pyridin-2-yl]-[4-(2,2,2-trifluoro-ethoxy)-phenyl]-amine]
< 0.1	[2H]C1([2H])NC([2H])([2H])C([2H])([2H])N(c2nc(-c3ccnc(Nc4ccccc4)c3)nc3cncc(C4CC4)c23)C1([2H])[2H] [Example 636, {4-[5-Cyclopropyl-4-(2,2,3,3,5,5,6,6-octadeuterio-piperazin-1-yl)-pyrido[3,4-d]pyrimidin-2-yl]-pyridin-2-yl}-phenyl-amine]
< 0.1	Cn1nccc1-c1ccc(Nc2cc(-c3nc(N4CCNCC4)c4c(C5CC5)cncc4n3)ccn2)c(F)c1 [Example 2055, [4-(5-Cyclopropyl-4-piperazin-1-yl-pyrido[3,4-d]pyrimidin-2-yl)-pyridin-2-yl]-[2-fluoro-4-(2-methyl-2H-pyrazol-3-yl)-phenyl]-amine]
< 0.1	Fc1ccc2nc(Nc3cc(-c4nc(N5CCNCC5)c5c(C6CC6)cncc5n4)ccn3)nn2c1 [Example 2039, [4-(5-Cyclopropyl-4-piperazin-1-yl-pyrido[3,4-d]pyrimidin-2-yl)-pyridin-2-yl]-(6-fluoro-[1,2,4]triazolo[1,5-a]pyridin-2-yl)-amine]
< 0.1	c1cc(-c2nc(N3CCNCC3)c3c(C4CC4)cncc3n2)cc(Nc2ccn3nccc3c2)n1 [Example 564, [4-(5-Cyclopropyl-4-piperazin-1-yl-pyrido[3,4-d]pyrimidin-2-yl)-pyridin-2-yl]-pyrazolo[1,5-a]pyridin-5-yl-amine]
